PMC5068545, “Glycan Specificity of P[19] Rotavirus and Comparison with Those of Related P Genotypes” (Journal of Virology, 2016)

How the values were obtained:
P[4] VP8* = target: T1, P[4] VP8* (Human rotavirus (SEROTYPE 2 / STRAIN DS1), UniProt P11196); test: ELISA-based oligosaccharide binding; conditions: GST-VP8*; labelled compound (biotin conjugate, multivalent); weak signal
T1 construct: VP8* domain of spike polyprotein VP4; GST fusion from E. coli BL21; DS1 is only the modelling template
Description: ELISA-based oligosaccharide binding on P[4] […] RVs

P[19] VP8* [1] = target: T2, P[19] VP8* (Human rotavirus A, UniProt A7YCM0); test: ELISA-based oligosaccharide binding; conditions: GST-VP8*; labelled compound (biotin conjugate, multivalent); weak signal
T2 construct: gene VP4; VP8* domain (aa 46-231) of spike polyprotein VP4; E. coli BL21 GST fusion; GST cut with thrombin for NMR, kept in ELISA and glycan array
Description: ELISA-based oligosaccharide binding on P[19] […] RVs recognized LNFPI and LNT | Low binding signals were detected for all four P[II] RVs

P[8] VP8* = target: T3, P[8] VP8* (Human rotavirus A, UniProt A0A509GLV6); test: ELISA-based oligosaccharide binding; conditions: GST-VP8*; labelled compound (biotin conjugate, multivalent); weak signal
T3 construct: VP8* domain of spike polyprotein VP4; GST fusion from E. coli BL21
Description: ELISA-based oligosaccharide binding on P[8] […] RVs

P[19] VP8* [2] = target: T2, P[19] VP8*; test: 1H-15N HSQC NMR titration; assay type: binding; conditions: 20°C, pH 8.0, 10 mM Tris-HCl, 100 mM NaCl; 0.25 mM 15N-labelled VP8*, GST removed
Description: 1H-15N HSQC NMR titration on P[19]

| Compound | ELISA-based oligosaccharide binding (P[4] VP8*) | ELISA-based oligosaccharide binding (P[19] VP8* [1]) | ELISA-based oligosaccharide binding (P[8] VP8*) | Kd (P[19] VP8* [2]) [µM] |
| --- | --- | --- | --- | --- |
| CC(=O)N[C@H]1C(O)O[C@H](CO)[C@@H](O)[C@@H]1O[C@@H]1O[C@H](CO)[C@H](O)[C@H](O)[C@H]1O (stereo partly shown) [lacto-N-biose, Galβ1-3GlcNAc] | Low binding signals were detected for all four P[II] RVs | Low binding signals were detected for all four P[II] RVs | Low binding signals were detected for all four P[II] RVs |  |
| CC(=O)N[C@H]1[C@H](O[C@H]2[C@@H](O)[C@@H](CO)O[C@@H](O[C@H]3[C@H](O)[C@@H](O)C(O)O[C@@H]3CO)[C@@H]2O)O[C@H](CO)[C@@H](O)[C@@H]1O[C@@H]1O[C@H](CO)[C@H](O)[C@H](O)[C@H]1O[C@@H]1O[C@@H](C)[C@@H](O)[C@@H](O)[C@@H]1O (stereo partly shown) [LNFPI, Fucα1-2Galβ1-3GlcNAcβ1-3Galβ1-4Glc] |  |  |  | 2600 |
